Test results: patent US20250346603A1, “TRICYCLIC COMPOUNDS AS PI3KALPHA INHIBITORS” (Pikavation Therapeutics, Inc., priority 2022, published 2025)

Experiments:
[1] = system: T47D (PIK3CA H1047R) cells; assay: pS473 AKT assay in T47D cells; format: cell-based; settings: Homo sapiens, pSer473 AKT, 2 h treatment, read-out: T47D_IC50
Protocol: (§1) SKBR3 (PIK3CA WT), MCF7 (PIK3CA E545K), and T47D (PIK3CA H1047R) cells were cultured using 10-cm petri dishes with recommended medium. One day before the assay, cells were seeded in 96-well plates. After overnight incubation, cells were treated with different concentrations of PI3Kα inhibitors for 2 h. Cells were then fixed using 4% paraformaldehyde at room temperature for 20 min. Cells were aspirated with 4% paraformaldehyde, and washed using 1× regular phosphate buffered saline 3 times, 5 min each. Any residual phosphate buffered saline was aspirated and cells were blocked using 10% goat serum containing 1% bovine serum albumin and 0.3% Triton X-100 at room temperature for 1 h. Without any additional washing, primary antibodies (rabbit anti-pSer473 AKT) were diluted using blocking buffer and added at a final volume of 50 microliter per well. Assay plates with primary antibodies were maintained overnight at 4° C. Cells were washed using 1× regular phosphate buffered saline 3 times, 5 min each. After the final wash, cells were incubated with horseradish peroxidase-conjugated secondary antibodies (goat Anti-rabbit IgG) and diluted using the same blocking buffer at room temperature for 1 h. Cells were then washed thoroughly using 1× regular phosphate buffered saline 3 times, 5 min each, and any residual phosphate buffered saline was aspirated. Super-Signal ELISA Pico Chemiluminescent Substrate was then added at a final volume of 100 microliter per well. Plates were read on a i3× Multi-Mode Microplate Reader and IC50 values calculated using GraphPad Prism software.
(§2) Results of the assay described above are presented in Table A. “++++” indicates an IC50 less than 1000 nM; “+++” indicates an IC50 greater than or equal to 1000 nM but less than 5000 nM; “++” indicates an IC50 greater than or equal to 5000 nM but less than 10000 nM; and “+” indicates an IC50 greater than or equal to 10000 nM.

SKBR3 (PIK3CA WT) cells = assay: pS473 AKT assay in SKBR3 cells; format: cell-based; settings: Homo sapiens, SK-BR-3, pSer473 AKT, 2 h treatment, read-out: SKBR3_IC50
Protocol: as §1, §2

Structure (SMILES)	IC50 [1] [nM]	IC50 (SKBR3 (PIK3CA WT) cells) [nM]
CCc1ncn2c3c(C(C)Nc4ccc(C)nc4C(=O)O)cc(C)cc3c3nncn3c12 (stereo not drawn) [Example 12, 3-((1-(5-Ethyl-11-methylimidazo[1,5-a][1,2,4]triazolo[4,3-c]quinazolin-9-yl)ethyl)amino)-6-methylpicolinic acid]	1000 to 5000	–
Cc1cc(C(C)Nc2ccccc2C(=O)O)c2nc(-c3cc(F)cc(F)c3)n3cnnc3c2c1 (stereo not drawn) [Example 11, 2-((1-(5-(3,5-Difluorophenyl)-9-methyl-[1,2,4]triazolo[4,3-c]quinazolin-7-yl)ethyl)amino)benzoic acid]	< 1000	–
Cc1cc(C(C)Nc2ccccc2C(=O)O)c2nc(N3CC(C)(C)C3)n3cnnc3c2c1 (stereo not drawn) [Example 7, 2-((1-(5-(3,3-Dimethylazetidin-1-yl)-9-methyl-[1,2,4]triazolo[4,3-c]quinazolin-7-yl)ethyl)amino)benzoic acid]	< 1000	≥ 10000
Cc1cc(C(C)Nc2ccc(Cl)nc2C(=O)O)c2nc(-c3cccc(C#N)c3)n3cnnc3c2c1 (stereo not drawn) [Example 10, 6-Chloro-3-((1-(5-(3-cyanophenyl)-9-methyl-[1,2,4]triazolo[4,3-c]quinazolin-7-yl)ethyl)amino)picolinic acid]	< 1000	–
Cc1cc(C(C)Nc2ccc(Cl)nc2-c2cnn(C)c2)c2nc(N3CCN(C)CC3)n3cnnc3c2c1 (stereo not drawn) [Example 15, 6-Chloro-2-(1-methyl-1H-pyrazol-4-yl)-N-(1-(9-methyl-5-(4-methylpiperazin-1-yl)-[1,2,4]triazolo[4,3-c]quinazolin-7-yl)ethyl)pyridin-3-amine]	< 1000	–
Cc1cc(C(C)Nc2ccccc2C(=O)O)c2nc(N3CCC(C)(C)CC3)n3nnnc3c2c1 (stereo not drawn) [Example 8, 2-((1-(5-(4,4-dimethylpiperidin-1-yl)-9-methyltetrazolo[1,5-c]quinazolin-7-yl)ethyl)amino)benzoic acid]	1000 to 5000	≥ 10000
Cc1cc(C(C)Nc2ccccc2C(=O)O)c2nc(N3CCC(C)(C)CC3)n3ccnc3c2c1 (stereo not drawn) [Example 1, 2-((1-(5-(4,4-Dimethylpiperidin-1-yl)-9-methylimidazo[1,2-c]quinazolin-7-yl)ethyl)amino)benzoic acid]	< 1000	≥ 10000

More lines, now with the values ahead:

IC50 [1] [nM]	IC50 (SKBR3 (PIK3CA WT) cells) [nM]	Structure (SMILES)
< 1000	–	CNC(=O)c1ccc(-c2nc(Cl)ccc2NC(C)c2cc(C)cc3c2nc(N2CCC(C)(C)CC2)n2cnnc32)cn1 (stereo not drawn) [Example 14, 6-Chloro-3-((1-(5-(4,4-dimethylpiperidin-1-yl)-9-methyl-[1,2,4]triazolo[4,3-c]quinazolin-7-yl)ethyl)amino)-N-methyl-[2,3′-bipyridine]-6′-carboxamide]
< 1000	≥ 10000	Cc1cc(C(C)Nc2ccccc2C(=O)O)c2nc(N3Cc4ccccc4C3)n3ccnc3c2c1 (stereo not drawn) [Example 2, 2-((1-(5-(Isoindolin-2-yl)-9-methylimidazo[1,2-c]quinazolin-7-yl)ethyl)amino)benzoic acid]
< 1000	–	Cc1cc(C(C)Nc2ccc(Cl)nc2-c2ccnn2C)c2nc(N3CCN(C)CC3)n3cnnc3c2c1 (stereo not drawn) [Example 16, 6-Chloro-2-(1-methyl-1H-pyrazol-5-yl)-N-(1-(9-methyl-5-(4-methylpiperazin-1-yl)-[1,2,4]triazolo[4,3-c]quinazolin-7-yl)ethyl)pyridin-3-amine]
< 1000	≥ 10000	Cc1cc(C(C)Nc2ccccc2C(=O)O)c2nc(N3Cc4ccccc4C3)n3cnnc3c2c1 (stereo not drawn) [Example 5, 2-((1-(5-(Isoindolin-2-yl)-9-methyl-[1,2,4]triazolo[4,3-c]quinazolin-7-yl)ethyl)amino)benzoic acid]
< 1000	≥ 10000	Cc1cc(C(C)Nc2ccccc2C(=O)O)c2nc(N3CCC(C)(C)CC3)n3cnnc3c2c1 (stereo not drawn) [Example 4, 2-((1-(5-(4,4-Dimethylpiperidin-1-yl)-9-methyl-[1,2,4]triazolo[4,3-c]quinazolin-7-yl)ethyl)amino)benzoic acid]
< 1000	≥ 10000	Cc1cc(C(C)Nc2ccccc2C(=O)O)c2nc(N3CCC(C)(C)CC3)n3ncnc3c2c1 (stereo not drawn) [Example 3, 2-((1-(5-(4,4-Dimethylpiperidin-1-yl)-9-methyl-[1,2,4]triazolo[1,5-c]quinazolin-7-yl)ethyl)amino)benzoic acid]
< 1000	–	Cc1cc(C(C)Nc2ccccc2C(=O)O)c2nc(-c3cccc(C#N)c3)n3cnnc3c2c1 (stereo not drawn) [Example 9, 2-((1-(5-(3-Cyanophenyl)-9-methyl-[1,2,4]triazolo[4,3-c]quinazolin-7-yl)ethyl)amino)benzoic acid]
< 1000	–	Cc1cc(C(C)Nc2ccc(Cl)nc2-c2ccncc2)c2nc(N3CCC(C)(C)CC3)n3cnnc3c2c1 (stereo not drawn) [Example 13, 6-Chloro-N-(1-(5-(4,4-dimethylpiperidin-1-yl)-9-methyl-[1,2,4]triazolo[4,3-c]quinazolin-7-yl)ethyl)-[2,4′-bipyridin]-3-amine]
< 1000	≥ 10000	Cc1cc(C(C)Nc2ccccc2C(=O)O)c2nc(N3CCC(C)(C)C3)n3cnnc3c2c1 (stereo not drawn) [Example 6, 2-((1-(5-(3,3-Dimethylpyrrolidin-1-yl)-9-methyl-[1,2,4]triazolo[4,3-c]quinazolin-7-yl)ethyl)amino)benzoic acid]
